# Data as given in patent US20150313217A1, “CONTROL AGENT FOR PLANT PEST AND/OR PLANT DISEASE” (RIKEN, priority 2012, published 2015).
# Test: Aggregation and precipitation of polyglycerin fatty acid ester on storage with oxoacid or organic solvent (Example 17)
# Type: physicochemical
# Parameters: key: 1: equivalent aggregation and precipitation to those of the reference were observed; 2: the aggregation and precipitation were approximately ¾ of those of the reference; 3: the aggregation and precipitation were approximately ½ of those of the reference; 4: the aggregation and precipitation were approximately ¼ of those of the reference; 5: no aggregate and precipitate were observed
# Details: cool dark place, two months, visual
# Experimental: A polyglycerin fatty acid ester and phosphoric acid were weighed using an electronic balance and put into a cylindrical plastic container (diameter of […]×height of 77 mm, volume 25 ml) in such a manner that the mixing ratio was 90:10 (mass ratio) (10 mass % of phosphoric acid (approximately 11.1 parts by mass of phosphoric acid per 100 parts by mass of the polyglycerin fatty acid) was added) or 99.9:0.1 (mass ratio) (0.1 mass % of phosphoric acid (approximately 0.1 parts by mass of phosphoric acid per 100 parts by mass of the polyglycerin fatty acid) was added). The total amount was adjusted to 20 ml. Then, the preparation was made uniform by sufficient stirring and mixing. The resultant was left standing in a cool dark place. Two months later, the degree of aggregation and precipitation of the polyglycerin fatty acid ester was visually determined based on the following determination criteria. […] Further, as a reference, a test was conducted by the same method as above using only a polyglycerin fatty acid ester to which no oxoacid or organic solvent was added. Index 1: equivalent aggregation and precipitation to those of the reference were observed. Index 2: the aggregation and precipitation were approximately ¾ of those of the reference.
# [1] = adding ratio 0.1 % to polyglycerin fatty acid ester
# [2] = adding ratio 10.0 % to polyglycerin fatty acid ester
compound,measurement,setting,value
CC(=O)O [acetic acid],Result (index): degree of aggregation and precipitation of the polyglycerin fatty acid ester,[1],4
same,Result (index): degree of aggregation and precipitation of the polyglycerin fatty acid ester,[2],5
CCO [ethyl alcohol],Result (index): degree of aggregation and precipitation of the polyglycerin fatty acid ester,[1],4
same,Result (index): degree of aggregation and precipitation of the polyglycerin fatty acid ester,[2],4
CC(O)C(=O)O (stereo not shown) [lactic acid],Result (index): degree of aggregation and precipitation of the polyglycerin fatty acid ester,[1],4
same,Result (index): degree of aggregation and precipitation of the polyglycerin fatty acid ester,[2],5
CCCCCC [normal hexane],Result (index): degree of aggregation and precipitation of the polyglycerin fatty acid ester,[1],3
same,Result (index): degree of aggregation and precipitation of the polyglycerin fatty acid ester,[2],4
O=P(O)(O)O [phosphoric acid],Result (index): degree of aggregation and precipitation of the polyglycerin fatty acid ester,[1],4
same,Result (index): degree of aggregation and precipitation of the polyglycerin fatty acid ester,[2],5
